Data taken from patent US7262165B2, “Aqueous preparation containing oligopeptides and etherified cyclodextrin” (Merck Patent GmbH, priority 2002, dated 2007).
Converted amounts (≈) assume the structure as drawn.

Test: Saturation solubilities of the oligopeptide (cilengitide) in the solvent indicated, with pH
Assay type: physicochemical
Settings: in physiological saline solution
Protocol: In order to determine the saturation solubilities, the oligopeptide was stirred for 1 hour at room temperature in the solvent indicated in each case.
Analogously to Example 1, the effect of addition of β-cyclodextrin ethers (MS 0.63) on the saturation solubilities of the oligopeptides was determined using the example of cilengitide.

solubility at 1 h: ~19 mg/mL (≈ 32.3 mM)
Compound: CC(C)[C@H]1C(=O)N[C@@H](CCCN=C(N)N)C(=O)NCC(=O)N[C@@H](CC(=O)O)C(=O)N[C@H](Cc2ccccc2)C(=O)N1C [Cilengitide, cyclo-(Arg-Gly-Asp-D-Phe-NMe-Val)]
